Reference: paper PMC8457735, “Synthesis, Kinetics, Binding Conformations and Structure-activity Relationship of Potent Tyrosinase Inhibitors: Aralkylated 2-aminothiazole-ethyltriazole Hybrids” (Iranian Journal of Pharmaceutical Research : IJPR, 2021)
“Also recorded” adds a separate entry of the source.

What was measured:
mushroom tyrosinase = mushroom tyrosinase (Agaricus bisporus, UniProt C7FF04); experiment: Kinetic analysis of tyrosinase inhibition (Lineweaver-Burk and secondary plots); type: biochemical
mushroom tyrosinase, sequence (C7FF04 1-392): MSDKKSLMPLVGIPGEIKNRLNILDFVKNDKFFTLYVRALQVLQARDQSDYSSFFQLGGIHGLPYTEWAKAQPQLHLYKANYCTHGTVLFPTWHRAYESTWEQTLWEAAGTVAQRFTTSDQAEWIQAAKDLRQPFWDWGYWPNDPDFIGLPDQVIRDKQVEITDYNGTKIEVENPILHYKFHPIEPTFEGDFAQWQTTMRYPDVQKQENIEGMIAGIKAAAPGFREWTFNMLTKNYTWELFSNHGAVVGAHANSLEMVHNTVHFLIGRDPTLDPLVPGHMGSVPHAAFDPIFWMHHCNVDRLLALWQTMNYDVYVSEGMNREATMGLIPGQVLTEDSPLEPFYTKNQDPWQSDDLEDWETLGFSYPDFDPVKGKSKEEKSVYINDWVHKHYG
Protocol: A series of experiments were performed to determine the inhibition kinetics of 7g, following the already reported methods ([54]). The concentrations for 7g were 0.00, 0.0018, 0.0036 and 0.0072 µM. Substrate L-DOPA concentrations were between 0.0625 to 2 mM in all kinetic studies. Pre-incubation and measurement time was the same as discussed in the mushroom tyrosinase inhibition assay protocol. Maximal initial velocity was determined from the initial linear portion of absorbance up to five minutes after the addition of enzyme at the 30s interval. The inhibition type of the enzyme was assayed by Lineweaver-Burk plots of the inverse of velocities (1/V) versus the inverse of substrate concentration 1/[L-DOPA] mM^-1.

[1] = Free radical scavenging assay (DPPH); conditions: compound concentration 100 µg/mL
Protocol: Radical scavenging activity was determined by modifying the already reported method by 2, 2-diphenyl-1 picrylhydrazyl (DPPH) assay ([55]). The assay solution consisted of 100 µL of DPPH (150 µM), 20 µL of increasing concentration of test compounds, and the volume was adjusted to 200 µL in each well with CH3OH. After that, the assay reaction was then incubated for 30 minutes at room temperature. Ascorbic acid (Vitamin C) was used as a reference inhibitor. The assay measurements were carried out using a microplate reader (OPTI Max, Tunable) at 517 nm. The reaction rates were compared, and the percent inhibition caused by tested inhibitors was calculated. All experiments were repeated thrice.

SMILES	radical scavenging activity [1]	melting point	other results
CCn1c(Cc2csc(N)n2)nnc1SCc1ccc(Cl)cc1Cl [Compound 7g, 4-({5-[(2,4-Dichlorobenzyl)sulfanyl]-4-ethyl-4H-1,2,4-triazol-3-yl}methyl)-1,3-thiazol-2-amine]	24%		Vmax (mushroom tyrosinase; L-DOPA activity in presence of 0.0018 µM 7g): 6.676 × 10^-5 ΔA/s; Vmax (mushroom tyrosinase; L-DOPA activity in presence of 0.0036 µM 7g): 4.712 × 10^-5 ΔA/s; Vmax (mushroom tyrosinase; L-DOPA activity in presence of 0.0072 µM 7g): 4.223 × 10^-5 ΔA/s; Inhibition Type (mushroom tyrosinase; Lineweaver-Burk plots, substrate L-DOPA 0.0625-2 mM): non-competitively; also recorded: Non-Competitive
CCn1c(Cc2csc(N)n2)nnc1SCc1ccc(Cl)c(Cl)c1 [Compound 7h, 4-({5-[(3,4-Dichlorobenzyl)sulfanyl]-4-ethyl-4H-1,2,4-triazol-3-yl}methyl)-1,3-thiazol-2-amine]	21%		
CCn1c(Cc2csc(N)n2)nnc1SCc1ccccc1Br [Compound 7i, 4-({5-[(2-Bromobenzyl)sulfanyl]-4-ethyl-4H-1,2,4-triazol-3-yl}methyl)-1,3-thiazol-2-amine]		108 to 109 °C	
CCn1c(Cc2csc(N)n2)nnc1SCc1ccc(Br)cc1 [Compound 7k, -({5-[(4-Bromobenzyl)sulfanyl]-4-ethyl-4H-1,2,4-triazol-3-yl}methyl)-1,3-thiazol-2-amine]		150 to 151 °C	
